Reference: patent US4530838A, “Synthetic calcitonin-gene-related peptides for lowering blood pressure or gastric acid secretion in mammals” (The Salk Institute for Biological Studies, priority 1983, dated 1985)

What was measured:
rats [1] = experiment: Mean arterial blood pressure (MAP) by direct arterial monitoring in unanesthetized rats; format: in vivo
Protocol: (§1) The synthetic CGRP was examined for its effect on mean arterial blood pressure(MAP) gastric acid secretion and plasma catecholamine levels. The effects of CGRP on MAP, gastric secretion and plasma catecholamine levels were determined in unanesthetized rats and Beagle dogs. MAP was measured via direct arterial monitoring and gastric acids were collected from chronic gastric-abdominal wall cannula. […] Mean arterial blood pressure in rats fell from 106 to 57±2 mm Hg within about 1 minute following an injection of 6.5 nmoles CGRP and then slowly returned to control values during a period of more than one hour. The iv administration of an injection equal to 650 pmoles of CGRP lowered MAP to 73±3 mm Hg in about one minute, returning to control value in about 1 hour. IV and ICV administration of CGRP (10 pmoles) to rats and dogs lowers pentagastrin-induced acid secretion by more than 70% for several hours.

Beagle dogs [2] = experiment: Mean arterial blood pressure (MAP) by direct arterial monitoring in unanesthetized Beagle dogs; format: in vivo
Protocol: as §1

rats [3] = experiment: Pentagastrin-induced gastric acid secretion, chronic gastric-abdominal wall cannula, rats; format: in vivo; settings: IV and ICV, 10 pmoles, for several hours
Protocol: as §1

Beagle dogs [4] = experiment: Pentagastrin-induced gastric acid secretion, chronic gastric-abdominal wall cannula, dogs; format: in vivo; settings: IV and ICV, 10 pmoles, for several hours
Protocol: as §1

[5] = Plasma catecholamine (norepinephrine) levels in unanesthetized animals; format: in vivo, rats and Beagle dogs; settings: IV and ICV, 6.5 nmoles
Protocol: as §1

[6] = Blood pressure (MAP) lowering, general procedure of Example I, species not stated; format: in vivo; settings: species and dose not stated
Protocol: as §1
The peptide [Lys^35 ]-CGRP having the formula: [drawing 7] is synthesized.

[7] = iv, degree and duration dose-related

SMILES: CC(C)C[C@H](NC(=O)CNC(=O)[C@H](C)NC(=O)[C@H](CC(C)C)NC(=O)[C@H](CCCNC(=N)N)NC(=O)[C@H](Cc1c[nH]cn1)NC(=O)[C@@H](NC(=O)[C@@H](NC(=O)[C@@H]1CSSC[C@H](NC(=O)[C@@H](N)CO)C(=O)N[C@@H](CC(N)=O)C(=O)N[C@@H]([C@@H](C)O)C(=O)N[C@@H](C)C(=O)N[C@@H]([C@@H](C)O)C(=O)N1)C(C)C)[C@@H](C)O)C(=O)N[C@@H](CC(C)C)C(=O)N[C@@H](CO)C(=O)N[C@@H](CCCNC(=N)N)C(=O)N[C@@H](CO)C(=O)NCC(=O)NCC(=O)N[C@H](C(=O)N[C@H](C(=O)N[C@@H](CCCCN)C(=O)N[C@@H](CC(=O)O)C(=O)N[C@@H](CC(N)=O)C(=O)N[C@@H](Cc1ccccc1)C(=O)N[C@H](C(=O)N1CCC[C@H]1C(=O)N[C@H](C(=O)N[C@@H](CC(N)=O)C(=O)N[C@H](C(=O)NCC(=O)N[C@@H](CO)C(=O)N[C@@H](CCC(=O)O)C(=O)N[C@@H](C)C(=O)N[C@@H](Cc1ccccc1)C(N)=O)C(C)C)[C@@H](C)O)C(C)C)C(C)C)C(C)C [CGRP]
- Rapid decrease in MAP evoked, intercerebroventricular (icv) administration (rats [1]; icv): not
- Period of return of MAP to control values (rats [1]; injection of 6.5 nmoles): more than one
- Mean arterial blood pressure after injection (rats [1]; injection of 6.5 nmoles, fell from 106 within about 1 minute): 57±2 mm Hg
- Time of return of MAP to control value (rats [1]; iv injection of 650 pmoles): about 1 hour
- Mean arterial blood pressure after injection (rats [1]; iv injection of 650 pmoles, in about one minute): 73±3 mm Hg
- Effect on MAP, intravenous (iv) administration (rats [1]; [7]): rapid decrease in MAP
- Rapid decrease in MAP evoked, intercerebroventricular (icv) administration (Beagle dogs [2]; icv): not
- Effect on MAP, intravenous (iv) administration (Beagle dogs [2]; [7]): rapid decrease in MAP
- Lowering of pentagastrin-induced acid secretion (rats [3]): more than 70%
- Lowering of pentagastrin-induced acid secretion (Beagle dogs [4]): more than 70%
- Norepinephrine in plasma [5]: significant elevation
- Effect on blood pressure / MAP [6]: substantially lower blood pressure for an extended time period

SMILES: CC(C)C[C@H](NC(=O)CNC(=O)[C@H](C)NC(=O)[C@H](CC(C)C)NC(=O)[C@H](CCCNC(=N)N)NC(=O)[C@H](Cc1c[nH]cn1)NC(=O)[C@@H](NC(=O)[C@@H](NC(=O)[C@@H]1CSSC[C@H](NC(=O)[C@@H](N)CO)C(=O)N[C@@H](CC(N)=O)C(=O)N[C@@H]([C@@H](C)O)C(=O)N[C@@H](C)C(=O)N[C@@H]([C@@H](C)O)C(=O)N1)C(C)C)[C@@H](C)O)C(=O)N[C@@H](CC(C)C)C(=O)N[C@@H](CO)C(=O)N[C@@H](CCCNC(=N)N)C(=O)N[C@@H](CO)C(=O)NCC(=O)NCC(=O)N[C@H](C(=O)N[C@H](C(=O)N[C@@H](CCCCN)C(=O)N[C@@H](CC(=O)O)C(=O)N[C@@H](CC(N)=O)C(=O)N[C@@H](Cc1ccccc1)C(=O)N[C@H](C(=O)N1CCC[C@H]1C(=O)N[C@H](C(=O)N[C@@H](CC(N)=O)C(=O)N[C@H](C(=O)NCC(=O)N[C@@H](CO)C(=O)N[C@@H](CCCCN)C(=O)N[C@@H](C)C(=O)N[C@@H](Cc1ccccc1)C(N)=O)C(C)C)[C@@H](C)O)C(C)C)C(C)C)C(C)C [[Lys^35]-CGRP]
- Effect on blood pressure / MAP [6]: very significant lowering of MAP
